Experimental data from patent US8491891B2, “Human beta-glucuronidase mutants with elevated enzymatic activity under physiological conditions and method for identifying such” (Academia Sinica, priority 2008, dated 2013).
Where two headings read alike, the source gives them in different places. Marks after values point to notes of the source that are not given here.

Legend:
[1] = Serum concentrations of CPT-11, SN-38 and SN-38G after CPT-11 administration; settings: for Serum levels in mice bearing EJ versus EJ/mβG tumor: 2 h after CPT-11 administration; for Serum concentrations in mice bearing EJ versus EJ/mβG tumor: 8 h or 24 h after CPT-11 administration
[2] = Intratumoral concentrations of CPT-11, SN-38 and SN-38G after CPT-11 treatment (SPE-HPLC)
Procedure: Tumors were collected 2, 8 and 24 h after CPT treatment, immediately dispersed in ice-cold acidic methanol (methanol: water: perchloric acid=20:20:1), and homogenized 60 sec on an Ultraturax tissue homogenizer at 20,000 rpm. The samples were clarified by centrifugation at 15,000 g for 5 min at 4° C. Supernatants were diluted with 0.1 M KH2PO4 and then separated by SPE-HPLC on a μBondapack column with 27% acetonitrile in 0.1 M potassium phosphate buffer pH=2.6. […] These three analytes were quantified by comparison with standard curves generated with analyte concentrations ranging from 2.0 pg to 200 ng.

EJ/mβG cells = assay: Sensitivity of EJ/mβG cells to CPT-11, SN-38, SN-38G (3H-thymidine incorporation); settings: for IC50: read-out: IC50 (cytotoxicity), EJ/mβG cells
Procedure: EJ human bladder carcinoma cells were cultured in RPMI medium supplemented with 10% bovine calf serum in a humidified atmosphere of 5% CO2 in air at 37° C.
(§1) Cell viability was examined by measuring ^3H-thymidine incorporation into cellular DNA after the cells were cultured for an additional 24 h in fresh medium.

[3] = test system: EJ human bladder carcinoma cells; assay: Sensitivity of EJ cells to CPT-11, SN-38, SN-38G (3H-thymidine incorporation)
Procedure: as §1

[4] = Enzymatic activity of purified position-545 single mutants at pH 7.0; type: biochemical; settings: purified enzyme
Excerpt: DNA plasmids were extracted from 12 individual cell clones and subjected to DNA sequencing to examine mutations in the genes encoding human β-glucuronidase variants. All human β-glucuronidase variants being examined had mutations at position 545 (50% T→A and 50% T→S). To determine the effect of amino acid substitutions at position 545 on enzyme activity, the single amino acid mutants T545A (E1-A), T545G (E1-G), T545S (E1-S) and T545Y (E1-Y) were generated and purified from the culture medium of stably transfected fibroblasts. […] Thus, the single amino acid substitution at position 545 affected human β-glucuronidase activity at neutral pH.

[5] = Relative activity of membrane-tethered human β-glucuronidase variants on 3T3 cells by flow cytometry (FL4/FL1); type: cell-based; settings: membrane-tethered enzyme, pH 7.0, substrate ELF97 β-D-glucuronide
Procedure: The 3T3 cell libraries mentioned above were screened by FACS analysis for cells that express human β-glucuronidase variants with elevated enzymatic activity. 10^7 3T3 cells expressing membrane-bound human β-glucuronidase variants were washed and suspended in 0.4 ml BSA/HBSS (5.4 mM KCl, 0.3 mM Na2HPO4, 0.4 mM KH2PO4, 4.2 mM NaHCO3, 1.3 mM CaCl2, 0.5 mM MgCl2, 0.6 mM MgSO4, 137 mM NaCl, 5.6 mM D-glucose, pH 7.4) containing 0.5% bovine serum albumin (BSA) and 20 μg/ml 7G8-FITC for 30 min at 4° C. Cells were then washed and incubated with 25, 50 or 100 μM ELF97 β-D-glucuronide at defined pH values in 50 mM Bis-Tris, 25 mM glucose, 85.6 mM NaCl, 5.4 mM KCl, 0.6 mM MgSO4, 1.3 mM CaCl2) at 37° C. for 10 min. The cells were washed with ice-cold 0.5% BSA/HBSS and suspended in 0.5% BSA/HBSS containing 5 μg/ml propidium iodide (Sigma). Cells were then sorted on a FACSVantage DiVa (Becton, Dickinson and Company, Franklin Lakes, N.J.) equipped with an Enterprise IIC argon laser for dual excitation at 488 and 351-364 nm. Dead cells (propidium iodide positive, high FL3 fluorescence) were gated out before 7G8-FITC immunofluorescence was detected at excitation/emission wavelengths of 488/515 nm (FL1) and ELF97 was detected at excitation/emission wavelengths of 351/530 nm (FL4). […] The sorted cells were cultured for 4-10 days for sequential rounds of cell sorting or RNA extraction. Flow cytometer data was analyzed using Flowjo (Tree star, Ashland, Oreg.).
Independent 3T3 clones (5×10^7) in library EP2 mentioned above were immunofluorescence stained with 7G8-FITC and reacted with ELF97 β-D-glucuronide at pH 7.0. Sixteen individual cell clones were isolated after three rounds of sorting and the human β-glucuronidase genes were sequenced. […] Table 1 below lists amino acid substitutions in five exemplary variants and their relative enzymatic activities.

[6] = Kinetic values (Km, kcat) of soluble recombinant human β-glucuronidase and variants; type: biochemical
Procedure: Recombinant His-tagged wild-type human β-glucuronidase and its variants (soluble) were produced in and purified from stable 3T3 fibroblast lines, following the method described above also the method described in Wu et al., Biotechnol Appl Biochem 40:167-172 (2004).
The pH-dependent enzyme activities of the above-mentioned recombinant human beta-glucuronidase and variants were measured in triplicate with 0.1 mM ELF97 β-D-glucuronide at 37° C. for 30 minutes at a defined pH ranging from 3-10 in a beta-glucuronidase reaction buffer (50 mM Bis-Tris, 50 mM triethanol amine, 100 mM acetic acid, 0.1% BSA). The reaction was quenched by adding an equal volume of a stop buffer (2 M Tris-HCl, 0.8 M sodium bicarbonate, pH 8). The fluorescence of ELF97 was measured in a Gemini EM microplate spectrofluorometer (Molecular Device, Sunnyvale, Calif.) at excitation/emission wavelengths of 355/555 nm. Kinetic values for human beta-glucuronidase substrate hydrolysis were determined by diluting ELF97 β-D-glucuronide (2 mM) in a pH 4.5 or pH 7.0 beta-glucuronidase reaction buffer 1:1 with defined concentrations of human beta-glucuronidase in 200 μl. Fluorescence was immediately measured under thermal control at 37° C. for 8-10 min. The measurement was repeated using the same amount of enzyme at different substrate concentrations in an optimal range. The acquired readings were converted to product concentration based on preestablished standard curves. Double reciprocal plots were used to determine Km and kcat. Kinetic assays were performed at least 3 times and mean values were calculated. The stability of recombinant human beta-glucuronidase variants was carried out by measuring their enzymatic activity at time 0 and again after incubating 5 μg purified enzymes in PBS (containing 0.5 mg/ml BSA) at 37° C. for 14 days. The enzymatic activities of the human beta-glucuronidase variants were measured in triplicate with 0.5 mM 4-methylumbelliferyl β-D-glucuronide at 37° C. for 15 minutes at pH 7.0 in β-glucuronidase reaction buffer. The reaction was terminated by adding an equal volume of a stop buffer (1 M glycine, 0.5 M sodium bicarbonate, pH 11) and the fluorescence was measured at excitation/emission wavelengths of 355/460 nm in a microplate spectrofluorometer.

[7] = 24 h after CPT-11 10 mg/kg i.v.

Molecule | Serum levels in mice bearing EJ versus EJ/mβG tumor [1] | Serum concentrations in mice bearing EJ versus EJ/mβG tumor [1] | IC50 (EJ/mβG cells; pH 6.6) [nM] | IC50 (EJ/mβG cells; pH 7.4) [nM] | Relative activity (FL4/FL1 normalized to wild-type human β-glucuronidase) [5] | Km ([6]; pH 4.5, 37° C.) [µM] | kcat ([6]; pH 4.5, 37° C.) [s⁻¹] | Km ([6]; pH 7.0, 37° C.) [µM] | kcat ([6]; pH 7.0, 37° C.) [s⁻¹] | other results
CCc1c2c(nc3ccc(O)cc13)-c1cc3c(c(=O)n1C2)COC(=O)[C@]3(O)CC [SN-38] | similar | no significant differences | 2 | 6 | – | – | – | – | – | Intratumoral concentration, percent higher in EJ/mβG tumors as compared to EJ tumors ([2]; 2, 8 and 24 h): 65-130%; Difference EJ/mβG vs EJ (EJ values as 100%) ([2]; 2 h): 65.63* %; Concentration in EJ xenografts ([2]; 2 h after CPT-11 10 mg/kg i.v.): 43 ± 10.5 ng drug/g tumor; Concentration in EJ/mβG xenografts ([2]; 2 h after CPT-11 10 mg/kg i.v.): 71 ± 13 ng drug/g tumor; Difference EJ/mβG vs EJ (EJ values as 100%) ([2]; 8 h): 127.10* %; Concentration in EJ xenografts ([2]; 8 h after CPT-11 10 mg/kg i.v.): 7.5 ± 0.93 ng drug/g tumor; Concentration in EJ/mβG xenografts ([2]; 8 h after CPT-11 10 mg/kg i.v.): 17 ± 5.56 ng drug/g tumor; Difference EJ/mβG vs EJ (EJ values as 100%) ([2]; 24 h): 71.43* %; Concentration in EJ xenografts [2, 7]: 0.07 ± 0.02 ng drug/g tumor; Concentration in EJ/mβG xenografts [2, 7]: 0.12 ± 0.01 ng drug/g tumor; IC50 ([3]; read-out: IC50 (cytotoxicity), pH 6.6): 2 nM; IC50 ([3]; read-out: IC50 (cytotoxicity), pH 7.4): 6 nM
SN-38G | similar | no significant differences | 32 | 190 | – | – | – | – | – | Sensitivity of EJ/mβG cells relative to EJ cells (EJ/mβG cells; EJ/mβG vs EJ cells): over 30 times; Cytotoxicity at the highest concentration investigated ([3]; 1000 nM): non-toxic
E1-A: human β-glucuronidase single amino acid mutant T545A (protein, UniProt P08236 23-651, looked up, variant T545A) Beta-glucuronidase: LQGGMLYPQESPSRECKELDGLWSFRADFSDNRRRGFEEQWYRRPLWESGPTVDMPVPSSFNDISQDWRLRHFVGWVWYEREVILPERWTQDLRTRVVLRIGSAHSYAIVWVNGVDTLEHEGGYLPFEADISNLVQVGPLPSRLRITIAINNTLTPTTLPPGTIQYLTDTSKYPKGYFVQNTYFDFFNYAGLQRSVLLYTTPTTYIDDITVTTSVEQDSGLVNYQISVKGSNLFKLEVRLLDAENKVVANGTGTQGQLKVPGVSLWWPYLMHERPAYLYSLEVQLTAQTSLGPVSDFYTLPVGIRTVAVTKSQFLINGKPFYFHGVNKHEDADIRGKGFDWPLLVKDFNLLRWLGANAFRTSHYPYAEEVMQMCDRYGIVVIDECPGVGLALPQFFNNVSLHHHMQVMEEVVRRDKNHPAVVMWSVANEPASHLESAGYYLKMVIAHTKSLDPSRPVTFVSNSNYAADKGAPYVDVICLNSYYSWYHDYGHLELIQLQLATQFENWYKKYQKPIIQSEYGAEAIAGFHQDPPLMFTEEYQKSLLEQYHLGLDQKRRKYVVGELIWNFADFMTEQSPTRVLGNKKGIFTRQRQPKSAAFLLRERYWKIANETRYPHSVAKSQCLENSLFT | – | – | – | – | – | – | – | – | – | Enzymatic activity relative to wild-type human β-glucuronidase [4]: about 2.5 fold
E2-20: human beta-glucuronidase variant L243Q, L255Q, T545G, SEQ ID NO: 10 (protein, Laboratory generated variant, E2-20, based upon the human beta-glucuronidase) AAQPALQGGMLYPQESPSRECKELDGLWSFRADFSDNRRRGFEEQWYRRPLWESGPTVDMPVPSSFNDISQDWRLRHFVGWVWYEREVILPERWTQDLRTRVVLRIGSAHSYAIVWVNGVDTLEHEGGYLPFEADISNLVQVGPLPSRLRITIAINNTLTPTTLPPGTIQYLTDTSKYPKGYFVQNTYFDFFNYAGLQRSVLLYTTPTTYIDDITVTTSVEQDSGQVNYQISVKGSNQFKLEVRLLDAENKVVANGTGTQGQLKVPGVSLWWPYLMHERPAYLYSLEVQLTAQTSLGPVSDFYTLPVGIRTVAVTKSQFLINGKPFYFHGVNKHEDADIRGKGFDWPLLVKDFNLLRWLGANAFRTSHYPYAEEVMQMCDRYGIVVIDECPGVGLALPQFFNNVSLHHHMQVMEEVVRRDKNHPAVVMWSVANEPASHLESAGYYLKMVIAHTKSLDPSRPVTFVSNSNYAADKGAPYVDVICLNSYYSWYHDYGHLELIQLQLATQFENWYKKYQKPIIQSEYGAEGIAGFHQDPPLMFTEEYQKSLLEQYHLGLDQKRRKYVVGELIWNFADFMTEQSPTRVLGNKKGIFTRQRQPKSAAFLLRERYWKIANETRYPHSVAKSQCLENSPFTSVD | – | – | – | – | 116 | 6.7 ± 0.5 | 71 ± 3 | 38 ± 5 | 30 ± 5 | Km as compared to E1-G [6]: about a three-fold smaller Km; kcat/Km at pH 7.0, fold greater than kcat/Km of wild type at pH 4.5 ([6]; variant at pH 7.0 vs wild type at pH 4.5): about 2 fold
S28: human beta-glucuronidase variant Q518R, T545S, E595Y, T599F, SEQ ID NO: 9 (protein, Laboratory generated variant, S28, based upon the human beta-glucuronidase) AAQPALQGGMLYPQESPSRECKELDGLWSFRADFSDNRRRGFEEQWYRRPLWESGPTVDMPVPSSFNDISQDWRLRHFVGWVWYEREVILPERWTQDLRTRVVLRIGSAHSYAIVWVNGVDTLEHEGGYLPFEADISNLVQVGPLPSRLRITIAINNTLTPTTLPPGTIQYLTDTSKYPKGYFVQNTYFDFFNYAGLQRSVLLYTTPTTYIDDITVTTSVEQDSGLVNYQISVKGSNLFKLEVRLLDAENKVVANGTGTQGQLKVPGVSLWWPYLMHERPAYLYSLEVQLTAQTSLGPVSDFYTLPVGIRTVAVTKSQFLINGKPFYFHGVNKHEDADIRGKGFDWPLLVKDFNLLRWLGANAFRTSHYPYAEEVMQMCDRYGIVVIDECPGVGLALPQFFNNVSLHHHMQVMEEVVRRDKNHPAVVMWSVANEPASHLESAGYYLKMVIAHTKSLDPSRPVTFVSNSNYAADKGAPYVDVICLNSYYSWYHDYGHLELIRLQLATQFENWYKKYQKPIIQSEYGAESIAGFHQDPPLMFTEEYQKSLLEQYHLGLDQKRRKYVVGELIWNFADFMTYQSPFRVLGNKKGIFTRQRQPKSAAFLLRERYWKIANETRYPHSVAKSQCLENSPFTSVD | – | – | – | – | 47 | 16 ± 3 | 79 ± 3 | 72 ± 24 | 26 ± 3 | –
